Like-named read-outs stand apart in the source and are kept apart here.
Target: trypsin (Sus scrofa, UniProt P00761)
Assay: casein digestion protease inhibition assay, absorbance at […] nm
Format: biochemical
[1] = read-out: IC50 (mg/mL) * (converted)

Sequence of trypsin (P00761 9-231): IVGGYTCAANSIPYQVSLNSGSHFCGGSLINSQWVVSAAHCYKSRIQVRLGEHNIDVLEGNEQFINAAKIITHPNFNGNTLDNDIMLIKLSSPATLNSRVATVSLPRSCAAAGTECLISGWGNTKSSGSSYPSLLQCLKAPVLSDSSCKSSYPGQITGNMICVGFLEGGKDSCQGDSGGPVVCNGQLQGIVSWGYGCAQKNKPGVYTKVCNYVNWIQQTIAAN

| SMILES | IC50 [µM] | IC50 [1] [µM] |
| --- | --- | --- |
| CC(=O)Oc1ccccc1C(=O)O [acetylsalicylic acid, reference compound] | 2250 |  |
| NNC(=O)COc1ccccc1C(=O)Nc1ccccc1Br [HD, N-(2-bromo-phenyl)-2-hydrazinocarbonylmethoxy-benzamide] |  | 171 |
| O=C(COc1ccccc1C(=O)Nc1ccccc1Br)NN=Cc1cc(Br)ccc1O [HN, 2-(5-bromo-2-hydroxy-benzylidene-hydrazinocarbonylmethoxy)-N-(2-bromo-phenyl)-benzamide] |  | 102 |
| CCOC(=O)COc1ccccc1C(=O)Nc1ccccc1Br [EE, [2-(2-bromophenylcarbamoyl)phenoxy]acetic acid ethyl ester] |  | 115 |
